Reference: ChEMBL document CHEMBL1137070, “Novel galbonolide derivatives as IPC synthase inhibitors: design, synthesis and in vitro antifungal activities” (2004)
Values after ≈ are worked out from the molar mass of the structure shown.

What was measured:
Format in all cases: functional
[1] = test system: Candida albicans; experiment: In vitro antifungal activity against Candida albicans ATCC 90028; activity expressed as minimum inhibitory concentration
[2] = test system: Cryptococcus neoformans; experiment: In vitro antifungal activity against Cryptococcus neoformans ATCC 9011; activity expressed as minimum inhibitory concentration
[3] = test system: Cryptococcus neoformans; experiment: In vitro antifungal activity against Cryptococcus neoformans ATCC 9011
[4] = test system: Aspergillus fumigatus; experiment: In vitro antifungal activity against Aspergillus fumigatus TIMM1776; activity expressed as minimum inhibitory concentration
[5] = test system: Saccharomyces cerevisiae; experiment: In vitro antifungal activity against Saccharomyces cerevisiae Y9; activity expressed as minimum inhibitory concentration
[6] = test system: Candida albicans; experiment: In vitro antifungal activity against Candida albicans ATCC 90028
[7] = test system: Saccharomyces cerevisiae; experiment: In vitro antifungal activity against Saccharomyces cerevisiae Y9
[8] = test system: Aspergillus fumigatus; experiment: In vitro antifungal activity against Aspergillus fumigatus TIMM1776

SMILES	MIC [1] [µg/mL]	MIC [2] [µg/mL]	IC80 [3] [µg/mL]	MIC [4] [µg/mL]	MIC [5] [µg/mL]	IC80 [6] [µg/mL]	IC80 [7] [µg/mL]	IC80 [8] [µg/mL]
C=C1/C=C(\C)[C@H](CC)OC(=O)[C@H](C)C(=O)[C@@](O)(CO)C/C(C)=C/[C@@H](C)C1	> 64	> 64	32 (≈ 87.8 µM)	> 64	> 64	–	–	–
C=C1/C=C(\C)[C@H](CC)OC(=O)[C@H](C)C(=O)[C@@](O)(CO)C/C(Cl)=C/[C@@H](C)C1	> 64	16 (≈ 41.6 µM)	0.15 (≈ 0.39 µM)	> 64	–	64 (≈ 166 µM)	–	–
C=C1/C=C(\C)[C@H](CC)OC(=O)[C@H](C)C(=O)[C@@](O)(CO)[C@H](OC)/C=C/[C@@H](C)C1	> 64	> 64	–	> 64	–	–	–	–
C=C1/C=C(\C)[C@H](CC)OC(=O)[C@H](C)C(=O)[C@@](O)(CO)C/C=C/[C@@H](C)C1	> 64	> 64	–	> 64	–	–	–	–
C=C1/C=C(\C)[C@H](CC)OC(=O)[C@H](C)C(=O)[C@@](O)(CO)C/C(OCC(F)(F)F)=C/[C@@H](C)C1	> 64	32 (≈ 71.4 µM)	–	64 (≈ 143 µM)	–	–	–	–
C=C1/C=C(\C)[C@H](CC)OC(=O)[C@H](C)C(=O)[C@@](O)(CO)C/C(OC)=C/[C@@H](C)C1	4 (≈ 10.5 µM)	0.063 (≈ 0.166 µM)	< 0.031	> 64	1 (≈ 2.63 µM)	1 (≈ 2.63 µM)	0.5 (≈ 1.31 µM)	–
C=C1/C=C(\C)[C@H](CC)OC(=O)[C@H](C)C(=O)[C@@](O)(CO)C/C(SC)=C/[C@@H](C)C1	64 (≈ 161 µM)	0.5 (≈ 1.26 µM)	0.063 (≈ 0.159 µM)	> 64	64 (≈ 161 µM)	16 (≈ 40.3 µM)	32 (≈ 80.7 µM)	–
C=C1/C=C(\C)[C@H](CC)OC(=O)[C@H](C)C(=O)[C@@](O)(CO)[C@@H](OC)/C=C/[C@@H](C)C1	> 64	> 64	–	> 64	–	–	–	–
C=C1/C=C(\C)[C@H](CC)OC(=O)[C@@H](C)C(=O)[C@@](O)(CO)C/C(OC)=C/[C@@H](C)C1	> 64	> 64	–	> 64	> 64	–	–	–
C[C@@H]1[C@H](O)[C@@H](C)/C=C/C=C/C=C/C=C/C=C/C=C/C=C/[C@H](O[C@@H]2O[C@H](C)[C@@H](O)[C@H](N)[C@@H]2O)C[C@@H]2O[C@](O)(C[C@@H](O)C[C@@H](O)[C@H](O)CC[C@@H](O)C[C@@H](O)CC(=O)O[C@H]1C)C[C@H](O)[C@H]2C(=O)O [AMPHOTERICIN B]	0.25 (≈ 0.271 µM)	0.25 (≈ 0.271 µM)	–	1 (≈ 1.08 µM)	0.25 (≈ 0.271 µM)	–	–	–
OC(Cn1cncn1)(Cn1cncn1)c1ccc(F)cc1F [FLUCONAZOLE]	–	–	8 (≈ 26.1 µM)	–	–	0.5 (≈ 1.63 µM)	8 (≈ 26.1 µM)	> 64
